{"source": "ChEMBL document CHEMBL6092193", "about": "“Identification of furo[2,3-d]pyrimidin-4-ylsulfanyl-1,3,4-thiadiazole derivatives as novel FLT3-ITD inhibitors” (Eur J Med Chem, 2024)", "key": {"MV4-11 [1]": {"test_system": "MV4-11", "assay": "Induction of cell cycle arrest in human MV4-11 cells assessed as proportion of cells at S phase at 80 nM incubated for 24 hrs by PI staining based flow cytometry (reference value: 25.97%)", "assay_type": "functional"}, "[2]": {"test_system": "Receptor-type tyrosine-protein kinase FLT3 (Homo sapiens), P36888 [UNDEFINED MUTATION]", "assay_type": "cell-based", "settings": "BaF3, dose lower […], dose upper 2000.0 nM, time 2.0 hrs"}, "[3]": {"molecular_target": "T1, Receptor-type tyrosine-protein kinase FLT3 (Homo sapiens, UniProt P36888)", "T1 sequence (P36888 whole entry)": "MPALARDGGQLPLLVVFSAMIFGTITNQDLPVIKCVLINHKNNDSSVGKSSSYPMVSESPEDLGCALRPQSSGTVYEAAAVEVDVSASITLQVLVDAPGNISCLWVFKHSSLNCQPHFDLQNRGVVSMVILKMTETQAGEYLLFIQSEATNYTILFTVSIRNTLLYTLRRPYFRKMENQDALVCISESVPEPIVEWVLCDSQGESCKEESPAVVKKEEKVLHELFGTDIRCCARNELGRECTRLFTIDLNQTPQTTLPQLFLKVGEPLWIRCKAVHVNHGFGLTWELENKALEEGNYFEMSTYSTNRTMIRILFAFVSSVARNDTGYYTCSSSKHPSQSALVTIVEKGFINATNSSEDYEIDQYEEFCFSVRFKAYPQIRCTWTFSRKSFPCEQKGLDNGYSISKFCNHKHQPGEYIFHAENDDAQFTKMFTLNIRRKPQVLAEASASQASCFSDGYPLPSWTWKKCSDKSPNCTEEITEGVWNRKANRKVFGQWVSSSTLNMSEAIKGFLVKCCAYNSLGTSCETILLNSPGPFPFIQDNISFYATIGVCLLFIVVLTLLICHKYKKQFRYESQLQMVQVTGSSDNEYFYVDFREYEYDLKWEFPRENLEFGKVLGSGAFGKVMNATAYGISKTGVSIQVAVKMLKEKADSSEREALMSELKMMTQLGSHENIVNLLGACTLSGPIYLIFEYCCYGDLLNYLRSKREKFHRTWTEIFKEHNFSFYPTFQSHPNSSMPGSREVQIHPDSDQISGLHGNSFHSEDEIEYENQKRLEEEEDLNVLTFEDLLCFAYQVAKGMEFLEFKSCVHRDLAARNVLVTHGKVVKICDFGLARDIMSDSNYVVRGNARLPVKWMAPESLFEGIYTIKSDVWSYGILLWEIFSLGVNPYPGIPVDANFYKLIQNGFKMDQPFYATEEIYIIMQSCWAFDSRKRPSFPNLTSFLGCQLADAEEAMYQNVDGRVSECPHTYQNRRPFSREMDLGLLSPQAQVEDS", "description": "Inhibition of NanoLuc-fused FLT3 (unknown origin) transfected in HEK293 cells incubated for 2 hrs by NanoBRET target engagement assay"}, "HL-60 [4]": {"test_system": "HL-60", "assay": "cells", "settings": "Homo sapiens, HL-60, 72 h", "description": "Antiproliferative activity against human HL-60 cells assessed as inhibition of cell growth incubated for 72 hrs by resazurin dye based fluorescence analysis"}, "[5]": {"molecular_target": "Receptor-type tyrosine-protein kinase FLT3 (Homo sapiens, UniProt P36888, ITD)", "assay": "biochemical", "assay_type": "cell-based, Sf9"}, "HL-60 [6]": {"test_system": "HL-60", "assay": "Induction of cell cycle arrest in human HL-60 cells assessed as proportion of cells at G2/M phase at 2000 nM incubated for 24 hrs by PI staining based flow cytometry (reference value: 14.52%)", "assay_type": "functional"}, "BaF3": {"test_system": "BaF3", "assay": "cells", "settings": "Mus musculus, BaF3, 72 h"}, "HL-60 [7]": {"test_system": "HL-60", "assay": "Induction of cell cycle arrest in human HL-60 cells assessed as proportion of cells at S phase at 2000 nM incubated for 24 hrs by PI staining based flow cytometry (reference value: 36.12%)", "assay_type": "functional"}, "HL-60 [8]": {"test_system": "HL-60", "assay": "Induction of cell cycle arrest in human HL-60 cells assessed as proportion of cells at S phase at 3.2 nM incubated for 24 hrs by PI staining based flow cytometry (reference value: 36.12%)", "assay_type": "functional"}, "EOL1": {"test_system": "EOL1", "assay": "cells", "settings": "Homo sapiens, EOL1, 72 h", "description": "Antiproliferative activity against human EOL1 cells harboring FIP1L1-PDGFRA fusion gene assessed as inhibition of cell growth incubated for 72 hrs by resazurin dye based fluorescence analysis"}, "MV4-11 [9]": {"test_system": "MV4-11", "assay": "Induction of cell cycle arrest in human MV4-11 cells assessed as proportion of cells at S phase at 2000 nM incubated for 24 hrs by PI staining based flow cytometry (reference value: 25.97%)", "assay_type": "functional"}, "MV4-11 [10]": {"test_system": "MV4-11", "assay": "Induction of cell cycle arrest in human MV4-11 cells assessed as proportion of cells at G2/M phase at 80 nM incubated for 24 hrs by PI staining based flow cytometry (reference value: 10%)", "assay_type": "functional"}, "HL-60 [11]": {"test_system": "HL-60", "assay": "Induction of cell cycle arrest in human HL-60 cells assessed as proportion of cells at subG1 phase at 3.2 nM incubated for 24 hrs by PI staining based flow cytometry (reference value: 6.94%)", "assay_type": "functional"}, "HL-60 [12]": {"test_system": "HL-60", "assay": "Induction of cell cycle arrest in human HL-60 cells assessed as proportion of cells at subG1 phase at 400 nM incubated for 24 hrs by PI staining based flow cytometry (reference value: 6.94%)", "assay_type": "functional"}, "MV4-11 [13]": {"test_system": "MV4-11", "assay": "Induction of cell cycle arrest in human MV4-11 cells assessed as proportion of cells at subG1 phase at 2000 nM incubated for 24 hrs by PI staining based flow cytometry (reference value: 10.44%)", "assay_type": "functional"}, "MV4-11 [14]": {"test_system": "MV4-11", "assay": "Induction of cell cycle arrest in human MV4-11 cells assessed as proportion of cells at subG1 phase at 16 nM incubated for 24 hrs by PI staining based flow cytometry (reference value: 10.44%)", "assay_type": "functional"}, "MV4-11 [15]": {"test_system": "MV4-11", "assay_type": "functional, Homo sapiens", "settings": "dose 16 nM; time 24 hrs"}, "MV4-11 [16]": {"test_system": "MV4-11", "assay": "Induction of cell cycle arrest in human MV4-11 cells assessed as proportion of cells at subG1 phase at 80 nM incubated for 24 hrs by PI staining based flow cytometry (reference value: 10.44%)", "assay_type": "functional"}, "MV4-11 [17]": {"test_system": "MV4-11", "assay": "Induction of cell cycle arrest in human MV4-11 cells assessed as proportion of cells at G2/M phase at 3.2 nM incubated for 24 hrs by PI staining based flow cytometry (reference value: 10%)", "assay_type": "functional"}, "HL-60 [18]": {"test_system": "HL-60", "assay": "Induction of cell cycle arrest in human HL-60 cells assessed as proportion of cells at G1 phase at 400 nM incubated for 24 hrs by PI staining based flow cytometry (reference value: 49.36%)", "assay_type": "functional"}, "HL-60 [19]": {"test_system": "HL-60", "assay": "Induction of cell cycle arrest in human HL-60 cells assessed as proportion of cells at G2/M phase at 400 nM incubated for 24 hrs by PI staining based flow cytometry (reference value: 14.52%)", "assay_type": "functional"}, "HL-60 [20]": {"test_system": "HL-60", "assay": "Induction of cell cycle arrest in human HL-60 cells assessed as proportion of cells at subG1 phase at 2000 nM incubated for 24 hrs by PI staining based flow cytometry (reference value: 6.94%)", "assay_type": "functional"}, "[21]": {"molecular_target": "Receptor-type tyrosine-protein kinase FLT3 (Homo sapiens) (UniProt P36888)", "assay": "Inhibition of FLT3 in human MV4-11 cells assessed as inhibition of ERK1/2 phosphorylation at Thr202/Tyr204 residues incubated for 1 hr by immunoblot analysis", "assay_type": "cell-based", "settings": "dose lower […], dose upper 2000.0 nM"}, "MOLM-13": {"test_system": "MOLM-13", "assay": "cells", "settings": "Homo sapiens, MOLM-13, 72 h"}, "HL-60 [22]": {"test_system": "HL-60", "assay": "Induction of cell cycle arrest in human HL-60 cells assessed as proportion of cells at G1 phase at 2000 nM incubated for 24 hrs by PI staining based flow cytometry (reference value: 49.36%)", "assay_type": "functional"}}, "note": "Calls of active or inactive are those of the source. The calls are words filed in the database; no cut-off is given here."}
{"smiles": "COc1ccc(NC(=O)Nc2nnc(Sc3ncnc4oc(-c5ccccc5)cc34)s2)cc1", "values": [{"measurement": "Activity", "setting": "MV4-11 [1]", "value": 3.85, "unit": "%"}, {"measurement": "inhibition", "setting": "[2]", "value": "Active"}, {"measurement": "IC50", "setting": "[3]", "value": 174, "unit": "nM"}, {"measurement": "GI50", "setting": "HL-60 [4]", "value": "> 10000", "unit": "nM"}, {"measurement": "IC50", "setting": "[5]", "value": 31, "unit": "nM"}, {"measurement": "Activity", "setting": "HL-60 [6]", "value": 13.94, "unit": "%"}, {"measurement": "GI50", "setting": "BaF3", "value": 54, "unit": "nM"}, {"measurement": "Activity", "setting": "HL-60 [7]", "value": 37.26, "unit": "%"}, {"measurement": "Activity", "setting": "HL-60 [8]", "value": 37.01, "unit": "%"}, {"measurement": "GI50", "setting": "EOL1", "value": 39, "unit": "nM"}, {"measurement": "Activity", "setting": "MV4-11 [9]", "value": 5.78, "unit": "%"}, {"measurement": "Activity", "setting": "MV4-11 [10]", "value": 1.23, "unit": "%"}, {"measurement": "Activity", "setting": "HL-60 [11]", "value": 7.88, "unit": "%"}, {"measurement": "Activity", "setting": "HL-60 [12]", "value": 7.9, "unit": "%"}, {"measurement": "Activity", "setting": "MV4-11 [13]", "value": 38.33, "unit": "%"}, {"measurement": "Activity", "setting": "MV4-11 [14]", "value": 16.42, "unit": "%"}, {"measurement": "Activity", "setting": "MV4-11 [15]", "value": 89.29, "unit": "%"}, {"measurement": "Activity", "setting": "MV4-11 [16]", "value": 26.76, "unit": "%"}, {"measurement": "Activity", "setting": "MV4-11 [17]", "value": 6.22, "unit": "%"}, {"measurement": "Activity", "setting": "HL-60 [18]", "value": 50.35, "unit": "%"}, {"measurement": "Activity", "setting": "HL-60 [19]", "value": 13.74, "unit": "%"}, {"measurement": "Activity", "setting": "HL-60 [20]", "value": 7.81, "unit": "%"}, {"measurement": "inhibition", "setting": "[21]", "value": "Dose-dependent-effect"}, {"measurement": "GI50", "setting": "MOLM-13", "value": 63, "unit": "nM"}, {"measurement": "Activity", "setting": "HL-60 [22]", "value": 48.8, "unit": "%"}]}
